The record followed here is patent publication US7632812B2, “Methods to stimulate insulin production by pancreatic β-cells” (Massachusetts General Hospital, priority 1999, dated 2009).

Experiment [1] deals with rat insulin I promoter. Briefly: Rat insulin I promoter luciferase reporter (-410 INS-luc) in transfected INS-1 cells. It is filed as cell-based. The settings on record: absence of the Shh expression construct, dose-dependent, FIG. 19. (In general: A reporter such as luciferase makes a cellular process visible.)
Method: To determine whether hedgehog regulation of insulin production occurs at the transcriptional level, INS-1 cells were transiently transfected with 5-6 μg total DNA and 10 μL Lipofectamine according to the manufacturer's instructions (GIBCO BRL Life Technologies, Inc., Gaithersburg, Md.) with increasing concentrations of Shh expression vector pSHH in the presence of a rat insulin I promoter-reporter construct −410 INS-luc. […] The plasmid −410 INS-LUC consists of a fragment of the rat insulin I gene promoter that spans nucleotides −410 to +49 inserted into the pXP2 vector that includes firefly luciferase reporter sequences (Lu, M., et al, 1997, J. Biol. Chem.: 272:28349). […] For luciferase assays, cells were harvested 24 hours after transfection with 1× Reporter Lysis Buffer (Promega, Madison, Wis.). Luciferase assays were conducted with the Luciferase Assay System as outlined by the manufacturer (Promega, Madison, Wis.). Luciferase activities were normalized for extract protein concentrations as determined by the Bio-Rad Protein Assay (Bio-Rad Laboratories, Hercules, Calif.), a modified Bradford assay (Bradford, M., 1976, Anal. Biochem., 72:248).
Experiment [2] deals with insulin mRNA in INS-1 cells. Briefly: Northern blot of insulin mRNA levels in INS-1 cells. Format: cell-based, rat. The following applies: 20 μM, Northern RNA blots, FIG. 17. Here is the method: For isolation of total RNA, cells were washed in phosphate buffered saline and lysed with Tri-Reagent (SIGMA, St-Louis, Mo.). Total cellular RNA was prepared according to the manufacturer's protocol. For each sample, 4 μg total RNA was separated by electrophoresis on a denaturing gel consisting of 1× MOPS, 1.2% agarose and 1% formaldehyde. Samples were transferred using standard methods (Ausubel et al., Short Protocols in Molecular Biology, Third Edition, John Wiley and Sons, Inc., 1995.) to nylon membranes (Hybond-N+, Amersham Pharmacia Biotech, Inc., Piscataway, N.J.) and crosslinked with ultraviolet light (UV Stratalinker 1800, Stratagene, La Jolla, Calif.). The membranes were prehybridized in Rapid-Hyb Buffer (Amersham Pharmacia Biotech, Inc.) prior to hybridization for 4 hours at 65° C. with radiolabeled probes. Insulin transcripts were probed with a 231 nucleotide fragment (spanning nucleotides 349 to 580 of the rat insulin I gene, Genbank acc. no. V01242) of rat insulin I cDNA. […] For quantitation, autoradiograms were scanned with a Computing Densitometer (Molecular Dynamics, Sunnyvale, Calif.) and individual band intensities were determined with ImageQuant software (Molecular Dynamics, Sunnyvale, Calif.). […]

Experiment [3] relates to INS-1 cells. Briefly: Cellular insulin content of INS-1 cells (Rat Insulin RIA of lysate). Format: cell-based. The following applies: untransfected INS-1 cells, 20 μM, 24 hours; FIG. 16. Here is the method:
(§1) This potential role was examined with the rat INS-1 cell line, which intrinsically expresses Ihh and Dhh proteins (FIGS. 13 and 14). […] Insulin levels were measured with a Rat Insulin RIA Kit (LINCO Research, Inc., St. Louis, Mo.) using the protocol outlined by the manufacturer. […] After 24 hours of incubation, 500 μL aliquots of culture medium were removed and serially diluted for the assay. Culture medium that was not exposed to cells was tested as a negative control for the assay. In some experiments, transfected cells were assessed for insulin secretion rates. In these experiments, after incubation with lipofectamine and DNA, the transfected cells received fresh culture medium and 24-hour insulin secretion rates were assessed. Given that the cells intrinsically express hedgehog, the cells were also treated with cyclopamine in the absence of any transfection. […] Cells were then rinsed in phosphate buffered saline and lysed in 0.1N HCl in 100% ethanol at 4° C. The lysate was incubated overnight at−70° C. The thawed lysate was vortexed and subjected to brief centrifugation at 14,000 rpm. The resulting supernatant was dried under vacuum, resuspended in […] Assay buffer, and serially diluted for insulin measurements with the Rat Insulin RIA Kit.

Experiment [4] concerns INS-1 cells. Briefly: Insulin secretion by INS-1 cells into medium over 24 h (Rat Insulin RIA). The settings on record: INS-1 cells transfected with pEV control and insulin promoter-reporter construct; 24 h exposure; increasing amounts; FIG. 15. Format: cell-based. As to the method: as §1

Regarding `CC1=C2C[C@H]3[C@@H](CC=C4C[C@@H](O)CC[C@@]43C)[C@@H]2CC[C@]12O[C@@H]1C[C@H](C)CN[C@H]1[C@H]2C` [cyclopamine], the “inhibition of basal insulin promoter activity” value in experiment [1] is “up to 90%”. Further, the “levels of insulin mRNA” value in experiment [2] is “decrease in the levels of insulin mRNA”. In addition, the “reduction in cellular insulin content” value in experiment [3] is on record as 40%. In experiment [4], the “effect on insulin secretion” value was “increasingly inhibited insulin secretion”.
